According to article PMC11808397, “Development of selective nanomolar cyclic peptide ligands as GBA1 enzyme stabilisers” (RSC Chemical Biology, 2025):
Positions of bridges follow the written chain, without caps; N, C: chain ends. Non-standard residues stand in square brackets, D forms with d. Residues, ends and D or L forms follow the SMILES beside them.

Assays:
[1] = target: T1, recombinant human GBA1 (rhGBA1, Cerezyme) (Homo sapiens, UniProt P04062, R534H); experiment: rhGBA1 Ki / kinetic studies with varied 4-MU substrate; format: biochemical; details: 4MU substrate 0.05-5 mM, no pre-incubation, mean ± SD from 3 technical triplicates
T1 construct: purchased Cerezyme
T1 sequence (P04062 40-536 R534H): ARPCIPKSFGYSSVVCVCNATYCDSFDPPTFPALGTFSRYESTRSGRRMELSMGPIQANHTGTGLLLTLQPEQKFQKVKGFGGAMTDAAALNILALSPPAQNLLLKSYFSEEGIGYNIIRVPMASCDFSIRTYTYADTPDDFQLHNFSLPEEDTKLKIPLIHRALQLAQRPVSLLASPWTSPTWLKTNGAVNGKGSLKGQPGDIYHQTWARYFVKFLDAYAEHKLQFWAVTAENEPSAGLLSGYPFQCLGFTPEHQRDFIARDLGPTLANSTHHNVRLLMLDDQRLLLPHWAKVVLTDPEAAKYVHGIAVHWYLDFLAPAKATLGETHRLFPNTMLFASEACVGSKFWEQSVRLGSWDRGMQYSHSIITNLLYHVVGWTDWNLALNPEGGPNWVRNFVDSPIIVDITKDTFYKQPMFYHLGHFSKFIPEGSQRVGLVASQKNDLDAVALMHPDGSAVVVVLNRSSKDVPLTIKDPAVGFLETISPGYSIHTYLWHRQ
Description: Based on the pull-down validation, a set of eight cyclic peptides (L1, L2, L4, L6, D1, D8, D12 and D13) were identified, synthesized, and evaluated for their inhibitory potency against recombinant human GBA1 (rhGBA1, Cerezyme®) and their selectivity over human β-glucosidases GBA2 and GBA3. Half-maximum inhibitory concentration (IC50) values for β-glucosidases were determined in vitro by measuring hydrolysis of 4-methylumbelliferyl-β-D-glucopyranoside (4-MU-β-D-Glu) fluorogenic substrate.
(§1) Selective Cyclic Peptide Ligands as GBA1 Stabilizers Katzy et al.
Figure S4. Inhibitory constant (Ki) values using increasing concentrations of 4-MU-beta-glucoside as fluorogenic substrate. Enzyme activity (nmol h-1 mg-1) versus MU substrate concentrations is plotted (See Table 1 for Ki values) for inhibitors L2, L4, L6, D1, D8, and D12, and corresponding Lineweaver Burk plots are shown on the right.
(§2) (1 picture or pasted object on this page, not shown here)
GBA1 Ki values were determined using the same incubation times and buffers as described above following a previously described protocol.6 4MU-β-D-glucopyranoside concentration was varied […]
between 0.05 mM and 5 mM. […]
2.8. Thermostability assays in rhGBA (Cerezyme)
Varying concentrations of peptides were incubated with 1 µM rhGBA1 in 20 mM HEPES pH 7.0 with 100 mM NaCl, with a final DMSO concentration of 0.5 %, for 2 hours at room temperature. Melting

Human dermal fibroblasts = experiment: Toxicity / morphology of human dermal fibroblasts; format: cell-based; details: 3 hours, peptide concentrations above 10 μM (10 and 100 μM)
Description: We further investigated GBA1 inhibition in cells. Human dermal fibroblasts were initially incubated with peptide concentrations ranging from 0.1 μM (from 0.001 μM for L4, D1 and D12) to 100 μM of each cyclic peptide for […]. […] To further confirm the inability of these peptides to cross the cell membrane, we conducted in situ competitive activity-based protein profiling (cABPP) experiments using RAW 264.7 monocyte/macrophage-like cells. […] RAW 264.7 cells were then treated with increasing concentrations of cyclic peptides (0, 0.1, 1, 10, and 100 μM) for 4 hours, followed by exposure to a cell-penetrant Bodipy red broad spectrum GBA activity-based probe (ABP), JJB75[58] at 10 nM for 2 hours (Fig. S5 for chemical structures, ESI ^†). […] This cABPP experiment further confirms that the peptides are unable to cross the cell membrane (Fig. S6, ESI ^†).

[2] = target: T1, recombinant human GBA1 (rhGBA1, Cerezyme); experiment: Thermostability of rhGBA1, label-free differential scanning fluorimetry (Tycho NT.6); format: binding; details: rhGBA1 at 1 μM, 20 mM HEPES pH 7.0, 100 mM NaCl, 0.5% DMSO, 2 h room temperature; N. D. = not determined due to a lack of stabilisation effect
Description: Samples were incubated at room temperature for 2
hours before measurement in the Tycho NT6.
curves were determined in triplicate using the Tycho NT.6 (NanoTemper), according to manufacturer

[3] = Intrinsic stability of cyclic peptides in plasma; format: in vitro ADME; details: 0.1 μM in human plasma, 2 h at 37°C, then rhGBA1 10 nM 30 min, 4-MU activity read-out; n=3, technical duplicates
Description: Specifically, high concentrations of all peptides (10–1 μM) led to enzyme binding but also GBA1 inhibition after short incubations (0 to 30 minutes). […] To discard potential degradation of D8 and D12 during plasma experiments, the peptides were incubated in plasma at 0.1 μM for 2 hours, followed by the addition of rhGBA1 to measure its activity. This was compared to controls where D8 and D12 were added to plasma and directly tested for GBA1 activity.
as §1
Figure S10. Cerezyme (10 nM) stability in McIlvaine buffer pH 5.2 or in plasma of a healthy individual. GBA1 activity measured in n=3 replicates, in technical duplicates.
Figure S11. Intrinsic compounds stability of cyclic peptides D8 and D12 (0.1 µM) in plasma. rhGBA1 (10 nM) was added to compounds pre-incubated in plasma for 2h at 37°C or readily dissolved in DMSO, and incubated for 30 min, after which 4-MU activity was measured. Error ranges depict standard deviations from n=3 replicates, measured in technical duplicates.
Table S1. IC50 values for GBA1 inhibition in fibroblast lysates. Cells were treated with the peptides at increasing concentrations for 16 h, washed with PBS and homogenized. Reported values are mean ± standard deviation from 3 technical triplicates. N.D.: not determined.
Peptide GBA1 in fibroblast lysates
as §2

Compound | Ki [1] | toxicity to the cells (morphology) (Human dermal fibroblasts) | EC50 [2] | peptide stability in plasma (inhibitory activity after pre-incubation) [3]
CC[C@H](C)[C@H](NC(=O)[C@H](CC(C)C)NC(=O)[C@H](Cc1ccc(O)cc1)NC(=O)[C@H](Cc1ccc(O)cc1)NC(=O)[C@@H]1CSCC(=O)N[C@H](Cc2ccc(O)cc2)C(=O)N[C@@H](CCCNC(=N)N)C(=O)N[C@@H](C(C)C)C(=O)N1)C(=O)N[C@H](C(=O)N[C@H](C(=O)N[C@@H](CC(C)C)C(=O)N[C@@H](CC(=O)O)C(=O)N[C@@H](CS)C(N)=O)C(C)C)[C@@H](C)O [D1] ({CH2CO}-[dY]RVCYYLITVLDC-NH2; thioether N-4) | 0.9 ± 0.1 nM | – | – | –
CC(C)C[C@H](NC(=O)[C@@H](NC(=O)[C@H](CCCNC(=N)N)NC(=O)[C@@H]1CSCC(=O)N[C@H](Cc2ccc(O)cc2)C(=O)N[C@@H]([C@@H](C)O)C(=O)N2CCC[C@H]2C(=O)NCC(=O)N[C@@H](Cc2ccc(O)cc2)C(=O)N[C@@H](C(C)C)C(=O)N[C@@H](Cc2ccc(O)cc2)C(=O)N1)C(C)C)C(=O)N[C@@H](CCCCN)C(=O)N[C@@H](Cc1ccc(O)cc1)C(=O)N[C@@H](CS)C(N)=O [D8] ({CH2CO}-[dY]TPGYVYCRVLKYC-NH2; thioether N-8) | 13 ± 4 nM | still attached and otherwise looked healthy | 2200 ± 500 nM | retained their inhibitory activity against rhGBA1
CC(C)C[C@@H]1NC(=O)CNC(=O)[C@H](CC(C)C)NC(=O)[C@@H](Cc2ccc(O)cc2)NC(=O)CSC[C@@H](C(N)=O)NC(=O)[C@H](CO)NC(=O)[C@H](CCCCN)NC(=O)[C@H](CC(C)C)NC(=O)[C@H](Cc2ccccc2)NC(=O)[C@H](CCCNC(=N)N)NC(=O)[C@H](Cc2ccc(O)cc2)NC(=O)[C@H](Cc2c[nH]c3ccccc23)NC1=O [D12] ({CH2CO}-[dY]LGLWYRFLKSC-NH2; thioether N-12) | 1 ± 0.4 nM | still attached and otherwise looked healthy | 1900 ± 400 nM | retained their inhibitory activity against rhGBA1
CC[C@H](C)[C@H](NC(=O)[C@H](CCCNC(=N)N)NC(=O)[C@@H]1CSCC(=O)N[C@@H](Cc2ccc(O)cc2)C(=O)N[C@@H](C)C(=O)N[C@@H](Cc2ccc(O)cc2)C(=O)N[C@@H](Cc2c[nH]c3ccccc23)C(=O)N[C@@H](Cc2c[nH]c3ccccc23)C(=O)N[C@@H](CC(C)C)C(=O)N1)C(=O)N1CCC[C@H]1C(=O)N[C@@H](Cc1c[nH]c2ccccc12)C(=O)N[C@@H](CC(C)C)C(=O)N[C@@H](CO)C(=O)N[C@H](C(N)=O)C(C)C [L2] ({CH2CO}-YAYWWLCRIPWLSV-NH2; thioether N-7) | 42 ± 7 nM | – | 2000 ± 500 nM | –
CC(C)C[C@@H]1NC(=O)CNC(=O)[C@H](Cc2ccccc2)NC(=O)[C@H](CC(C)C)NC(=O)[C@@H]2CCCN2C(=O)[C@H](Cc2ccc(O)cc2)NC(=O)CSC[C@@H](C(=O)N2CCC[C@H]2C(=O)N[C@@H](CC(N)=O)C(=O)N[C@@H](Cc2c[nH]c3ccccc23)C(=O)N[C@@H](Cc2ccccc2)C(=O)N2CCC[C@H]2C(=O)N[C@@H](Cc2ccc(O)cc2)C(=O)N[C@@H](CCC(N)=O)C(=O)N[C@@H](CS)C(N)=O)NC(=O)[C@H](CO)NC(=O)[C@H](Cc2ccccc2)NC1=O [L4] ({CH2CO}-YPLFGLFSCPNWFPYQC-NH2; thioether N-9) | 2 ± 1 nM | – | 2600 ± 1100 nM | –
CC[C@H](C)[C@@H]1NC(=O)[C@H](Cc2ccc(O)cc2)NC(=O)CSC[C@@H](C(N)=O)NC(=O)[C@H](Cc2c[nH]c3ccccc23)NC(=O)[C@H](CCC(N)=O)NC(=O)[C@H]([C@@H](C)CC)NC(=O)[C@H]([C@@H](C)CC)NC(=O)[C@@H]2CCCN2C(=O)[C@H](C(C)C)NC(=O)[C@H](Cc2ccc(O)cc2)NC(=O)[C@H](Cc2c[nH]c3ccccc23)NC(=O)[C@H](CO)NC1=O [L6] ({CH2CO}-YISWYVPIIQWC-NH2; thioether N-12) | 1340 ± 203 nM | – | – | –
